Results: ChEMBL document CHEMBL4354830, “Discovery of Benzo[cd]indol-2(1H)-ones and Pyrrolo[4,3,2-de]quinolin-2(1H)-ones as Bromodomain and Extra-Terminal Domain (BET) Inhibitors with Selectivity for the First Bromodomain with Potential High Efficiency against Acute Gouty Arthritis” (J Med Chem, 2019)

molecular target: T1, Bromodomain-containing protein 4 (Homo sapiens, UniProt O60885); test: Binding affinity to recombinant human N-terminal His-tagged BRD4 BD1 (44 to 170 residues) expressed in Escherichia coli assessed as change in melting temperature at 10 uM by SYPRO Orange based differential scanning fluorimetry; settings: not given

ΔTm [°C] | Compound
2.17 | CN1C(=O)c2cccc3c(NC(=O)c4ccccc4)ccc1c23
2.7 | CN1C(=O)c2cccc3c(NCc4ccccc4)ccc1c23
5.72 | CN1C(=O)c2cccc3c(NS(=O)(=O)c4ccccc4)ccc1c23
2.19 | CN1C(=O)c2cccc3c(S(=O)(=O)Nc4ccccc4)ccc1c23
3.15 | CC(Nc1ccc2c3c(cccc13)C(=O)N2C)c1ccccc1 (stereo unspecified)

molecular target: T2, Bromodomain-containing protein 9 (Homo sapiens) (UniProt Q9H8M2); test: Binding affinity to BRD9 BD1 (unknown origin) assessed as change in melting temperature at 10 uM by SYPRO Orange based differential scanning fluorimetry; settings: not given
T2 sequence (whole entry): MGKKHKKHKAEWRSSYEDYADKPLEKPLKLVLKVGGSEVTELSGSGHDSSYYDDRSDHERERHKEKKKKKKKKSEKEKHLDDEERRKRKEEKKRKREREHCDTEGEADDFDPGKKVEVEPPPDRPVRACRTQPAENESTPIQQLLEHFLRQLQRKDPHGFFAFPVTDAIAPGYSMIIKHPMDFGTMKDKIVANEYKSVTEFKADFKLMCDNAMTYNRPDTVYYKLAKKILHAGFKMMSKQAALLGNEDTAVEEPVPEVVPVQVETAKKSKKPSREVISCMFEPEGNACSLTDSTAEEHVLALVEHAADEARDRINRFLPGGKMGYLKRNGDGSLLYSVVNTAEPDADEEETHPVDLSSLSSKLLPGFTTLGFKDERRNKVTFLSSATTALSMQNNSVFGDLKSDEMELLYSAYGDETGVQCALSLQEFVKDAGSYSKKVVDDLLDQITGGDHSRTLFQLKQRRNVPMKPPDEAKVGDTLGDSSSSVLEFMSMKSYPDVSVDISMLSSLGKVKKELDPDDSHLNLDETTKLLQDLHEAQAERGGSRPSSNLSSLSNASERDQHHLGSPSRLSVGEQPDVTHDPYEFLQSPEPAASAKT

ΔTm [°C] | Compound
4.1 | CN1C(=O)c2cccc3c(NC(=O)c4ccccc4)ccc1c23
-0.9 | CN1C(=O)c2cccc3c(NCc4ccccc4)ccc1c23
1.93 | CN1C(=O)c2cccc3c(NS(=O)(=O)c4ccccc4)ccc1c23
0.47 | CN1C(=O)c2cccc3c(S(=O)(=O)Nc4ccccc4)ccc1c23
4.33 | CC(Nc1ccc2c3c(cccc13)C(=O)N2C)c1ccccc1 (stereo unspecified)

molecular target: Chromatin remodeling regulator CECR2 (Homo sapiens) (UniProt Q9BXF3); test: Binding affinity to CECR2 (unknown origin) assessed as change in melting temperature at 10 uM by SYPRO Orange based differential scanning fluorimetry; settings: not given
Sequence (Q9BXF3 whole entry, looked up): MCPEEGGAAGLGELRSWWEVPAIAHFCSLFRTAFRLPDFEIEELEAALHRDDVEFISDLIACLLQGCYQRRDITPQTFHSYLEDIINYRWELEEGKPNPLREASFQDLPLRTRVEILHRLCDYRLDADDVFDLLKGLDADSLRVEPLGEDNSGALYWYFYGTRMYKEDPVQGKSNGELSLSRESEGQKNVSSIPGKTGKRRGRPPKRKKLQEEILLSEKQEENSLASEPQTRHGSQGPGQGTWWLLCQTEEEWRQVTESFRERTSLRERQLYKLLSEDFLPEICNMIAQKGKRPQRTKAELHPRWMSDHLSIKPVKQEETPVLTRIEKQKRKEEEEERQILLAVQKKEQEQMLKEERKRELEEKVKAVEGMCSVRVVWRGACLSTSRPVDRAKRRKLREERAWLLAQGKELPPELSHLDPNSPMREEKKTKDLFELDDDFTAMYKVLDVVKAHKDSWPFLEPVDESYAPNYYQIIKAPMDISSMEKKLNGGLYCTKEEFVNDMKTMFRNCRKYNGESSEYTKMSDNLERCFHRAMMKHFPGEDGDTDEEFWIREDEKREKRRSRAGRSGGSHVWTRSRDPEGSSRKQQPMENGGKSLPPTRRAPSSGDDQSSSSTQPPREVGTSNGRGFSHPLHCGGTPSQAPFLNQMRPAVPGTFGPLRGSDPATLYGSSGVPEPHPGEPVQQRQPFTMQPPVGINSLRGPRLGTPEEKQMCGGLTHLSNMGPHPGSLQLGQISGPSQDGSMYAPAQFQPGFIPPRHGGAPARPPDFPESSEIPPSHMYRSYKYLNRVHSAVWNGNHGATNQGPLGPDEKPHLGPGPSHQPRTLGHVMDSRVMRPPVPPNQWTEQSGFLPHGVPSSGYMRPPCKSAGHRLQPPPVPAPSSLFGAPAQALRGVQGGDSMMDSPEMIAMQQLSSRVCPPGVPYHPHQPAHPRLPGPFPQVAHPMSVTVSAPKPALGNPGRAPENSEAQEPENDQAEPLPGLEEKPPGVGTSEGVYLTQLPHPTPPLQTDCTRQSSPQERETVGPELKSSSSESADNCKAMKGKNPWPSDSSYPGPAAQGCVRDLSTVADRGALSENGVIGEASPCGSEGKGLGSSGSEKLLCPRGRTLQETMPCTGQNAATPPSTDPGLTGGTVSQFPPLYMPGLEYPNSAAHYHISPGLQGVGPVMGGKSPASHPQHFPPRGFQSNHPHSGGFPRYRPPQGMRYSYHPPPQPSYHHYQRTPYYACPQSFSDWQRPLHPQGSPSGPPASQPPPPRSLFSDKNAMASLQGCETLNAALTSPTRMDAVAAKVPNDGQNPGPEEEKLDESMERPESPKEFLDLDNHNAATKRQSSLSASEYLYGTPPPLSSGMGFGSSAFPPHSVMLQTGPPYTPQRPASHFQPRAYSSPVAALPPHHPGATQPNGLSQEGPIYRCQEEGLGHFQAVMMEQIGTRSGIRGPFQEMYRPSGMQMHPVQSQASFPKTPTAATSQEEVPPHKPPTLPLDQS

ΔTm [°C] | Compound
2.17 | CN1C(=O)c2cccc3c(NC(=O)c4ccccc4)ccc1c23
1.92 | CN1C(=O)c2cccc3c(NCc4ccccc4)ccc1c23
-0.31 | CN1C(=O)c2cccc3c(NS(=O)(=O)c4ccccc4)ccc1c23
-0.03 | CN1C(=O)c2cccc3c(S(=O)(=O)Nc4ccccc4)ccc1c23
0.13 | CC(Nc1ccc2c3c(cccc13)C(=O)N2C)c1ccccc1 (stereo unspecified)

molecular target: CREB-binding protein (Homo sapiens) (UniProt Q92793); test: Binding affinity to CREBBP (unknown origin) assessed as change in melting temperature at 10 uM by SYPRO Orange based differential scanning fluorimetry; settings: not given
Sequence (Q92793 2-2442 limits assumed): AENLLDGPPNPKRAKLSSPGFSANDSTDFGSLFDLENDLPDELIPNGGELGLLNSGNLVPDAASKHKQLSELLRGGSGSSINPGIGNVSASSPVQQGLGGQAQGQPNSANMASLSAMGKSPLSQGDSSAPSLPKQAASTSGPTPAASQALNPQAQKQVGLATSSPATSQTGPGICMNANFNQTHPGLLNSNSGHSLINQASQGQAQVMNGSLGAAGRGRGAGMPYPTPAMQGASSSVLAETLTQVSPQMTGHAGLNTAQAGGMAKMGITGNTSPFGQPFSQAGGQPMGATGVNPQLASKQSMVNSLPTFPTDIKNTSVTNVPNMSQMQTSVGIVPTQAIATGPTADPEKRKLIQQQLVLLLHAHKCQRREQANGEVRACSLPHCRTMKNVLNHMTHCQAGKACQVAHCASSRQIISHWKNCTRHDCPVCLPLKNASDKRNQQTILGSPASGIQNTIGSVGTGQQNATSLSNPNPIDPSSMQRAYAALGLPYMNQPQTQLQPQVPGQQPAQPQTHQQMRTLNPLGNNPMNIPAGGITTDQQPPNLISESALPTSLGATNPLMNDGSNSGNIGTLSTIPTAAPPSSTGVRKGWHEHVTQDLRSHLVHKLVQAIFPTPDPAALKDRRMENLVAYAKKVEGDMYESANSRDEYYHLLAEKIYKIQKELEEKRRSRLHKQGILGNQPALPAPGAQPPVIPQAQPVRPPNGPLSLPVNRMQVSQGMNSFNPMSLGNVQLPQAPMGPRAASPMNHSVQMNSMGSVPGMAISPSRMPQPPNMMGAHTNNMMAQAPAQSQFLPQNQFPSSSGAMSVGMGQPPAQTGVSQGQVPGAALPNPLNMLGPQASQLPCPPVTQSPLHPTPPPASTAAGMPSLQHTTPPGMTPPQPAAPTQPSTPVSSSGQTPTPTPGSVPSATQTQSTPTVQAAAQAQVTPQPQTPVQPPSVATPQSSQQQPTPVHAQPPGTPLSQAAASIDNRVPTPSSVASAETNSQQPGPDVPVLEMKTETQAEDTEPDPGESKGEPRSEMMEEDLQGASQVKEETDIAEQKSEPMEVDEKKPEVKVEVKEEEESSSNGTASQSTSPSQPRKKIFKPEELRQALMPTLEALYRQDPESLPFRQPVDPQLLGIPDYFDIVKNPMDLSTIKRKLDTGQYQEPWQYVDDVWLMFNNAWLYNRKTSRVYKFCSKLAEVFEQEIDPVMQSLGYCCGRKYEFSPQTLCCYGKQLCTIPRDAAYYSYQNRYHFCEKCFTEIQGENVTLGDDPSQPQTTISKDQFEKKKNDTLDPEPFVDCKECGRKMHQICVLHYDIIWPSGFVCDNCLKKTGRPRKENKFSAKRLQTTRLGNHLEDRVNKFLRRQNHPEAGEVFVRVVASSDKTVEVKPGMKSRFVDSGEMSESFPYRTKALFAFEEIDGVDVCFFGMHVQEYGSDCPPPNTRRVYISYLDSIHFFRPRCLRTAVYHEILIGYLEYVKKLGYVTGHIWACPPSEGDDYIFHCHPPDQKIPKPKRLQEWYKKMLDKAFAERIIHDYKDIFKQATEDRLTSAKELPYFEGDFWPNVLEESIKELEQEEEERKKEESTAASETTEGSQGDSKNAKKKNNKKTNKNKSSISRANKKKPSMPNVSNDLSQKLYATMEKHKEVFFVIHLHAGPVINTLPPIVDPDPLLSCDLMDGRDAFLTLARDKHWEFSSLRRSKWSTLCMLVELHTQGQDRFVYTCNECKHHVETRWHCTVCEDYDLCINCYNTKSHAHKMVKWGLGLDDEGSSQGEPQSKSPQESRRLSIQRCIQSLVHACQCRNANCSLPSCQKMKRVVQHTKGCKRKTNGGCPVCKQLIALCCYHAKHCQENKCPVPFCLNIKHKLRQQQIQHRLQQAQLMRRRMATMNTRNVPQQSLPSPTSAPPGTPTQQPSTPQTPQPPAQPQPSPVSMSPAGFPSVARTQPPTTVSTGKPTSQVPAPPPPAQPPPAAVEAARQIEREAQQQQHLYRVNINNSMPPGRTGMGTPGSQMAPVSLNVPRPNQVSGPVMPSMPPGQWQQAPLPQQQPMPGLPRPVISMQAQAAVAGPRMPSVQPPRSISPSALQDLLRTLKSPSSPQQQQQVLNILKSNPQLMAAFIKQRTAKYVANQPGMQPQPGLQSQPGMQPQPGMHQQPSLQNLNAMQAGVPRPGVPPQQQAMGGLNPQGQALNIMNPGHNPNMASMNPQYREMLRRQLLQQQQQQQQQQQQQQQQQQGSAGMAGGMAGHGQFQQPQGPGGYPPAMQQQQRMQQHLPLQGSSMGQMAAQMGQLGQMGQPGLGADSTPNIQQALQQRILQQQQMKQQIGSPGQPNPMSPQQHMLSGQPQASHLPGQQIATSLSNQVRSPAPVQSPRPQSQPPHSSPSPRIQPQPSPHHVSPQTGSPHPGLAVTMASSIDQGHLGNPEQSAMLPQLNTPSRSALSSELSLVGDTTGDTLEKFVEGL

ΔTm [°C] | Compound
0.93 | CN1C(=O)c2cccc3c(NC(=O)c4ccccc4)ccc1c23
1.6 | CN1C(=O)c2cccc3c(NCc4ccccc4)ccc1c23
1.51 | CN1C(=O)c2cccc3c(NS(=O)(=O)c4ccccc4)ccc1c23
0.53 | CN1C(=O)c2cccc3c(S(=O)(=O)Nc4ccccc4)ccc1c23
0.55 | CC(Nc1ccc2c3c(cccc13)C(=O)N2C)c1ccccc1 (stereo unspecified)

molecular target: T1, Bromodomain-containing protein 4; test: Displacement of tetra-acetylated histone H4 peptide (1-21) from recombinant human N-terminal His-tagged BRD4 BD1 (44 to 170 residues) expressed in Escherichia coli incubated for 30 mins followed by further incubation with tetra-acetylated histone H4 peptide (1-21) for 30 mins by Alphascreen assay; settings: not given

IC50 [nM] | Compound
709 | CN1C(=O)c2cccc3c(NS(=O)(=O)c4ccccc4)ccc1c23
54.8 | COc1ccccc1S(=O)(=O)Nc1ccc2c3c(cc(-c4ccc(C)o4)cc13)C(=O)N2C

molecular target: T1, Bromodomain-containing protein 4; test: Displacement of tetra-acetylated histone H4 peptide (1-21) from recombinant human N-terminal His-tagged BRD4 BD2 (349 to 460 residues) expressed in Escherichia coli incubated for 30 mins followed by further incubation with tetra-acetylated histone H4 peptide (1-21) for 30 mins by Alphascreen assay; settings: not given

IC50 [µM] | Compound
2.62 | CN1C(=O)c2cccc3c(NS(=O)(=O)c4ccccc4)ccc1c23
47 | COc1ccccc1S(=O)(=O)Nc1ccc2c3c(cc(-c4ccc(C)o4)cc13)C(=O)N2C

tested on: RAW264.7; test: Inhibition of LPS-induced NO overproduction in mouse RAW264.7 cells at 1 uM incubated for 2 hrs followed by LPS stimulation and measured after 22 hrs by Griess reagent based assay relative to control; type: functional; settings: Mus musculus, RAW264.7

Compound | inhibition at 1 µM [%]
COc1ccccc1S(=O)(=O)Nc1ccc2c3c(cc(-c4ccc(C)o4)cc13)C(=O)N2C | 58.5

tested on: not listed separately; test: Permeability of compound at 10 uM by PAMPA assay; type: ADME; settings: read-out: permeability

Papp at 10 µM [×10⁻⁶ cm/s] | Compound
0.006 | COc1ccccc1S(=O)(=O)Nc1ccc2c3c(cc(-c4ccc(C)o4)cc13)C(=O)N2C
